How the values were obtained:
IDO in Hela cells = target: T1, IDO in Hela cells (Homo sapiens, UniProt P14902); assay: Test of cellular activity (kynurenine formation in interferon γ stimulated Hela cells); assay type: cell-based; settings: head prints IPS cells, method: Hela cells, 48 h incubation, read at 480 nm
T1 construct: endogenous in cells; host or cells: HeLa cells stimulated with human interferon γ
Method: (3) Test Method of Cellular Activity
Hela cells (80 μL) was inoculated on a 96-well plate (5×10^3 for each well) to grow overnight. After the compound was diluted the next day, 1 μL of diluent and 100 μL of culture medium which contains human interferon γ (final concentration: 50 ng/m) were added into the 96-well plate to make the final volume reach […]. After incubating for 48 h, 80 μL of supernate was transferred from each well to a new […]. 10 μL 6.1N trichloroacetic acid was added into each well for mixing and incubation at 50° C. for 30 min, and […] N formyl-kynurenin into kynurenine. The reaction mixture was centrifuged at 2,500 rpm for 10 min, 70 μL of supernatant of each well was transferred to a new 96-well plate and mixed with 100 μL of 2% (w/v) dimethylaminobenzaldehyde acetic acid solution. After placing for 5-10 min, measurement was carried out at 480 nm with the SPECTRAmax i13 reader.

IDO enzyme = target: T2, IDO enzyme (Homo sapiens, UniProt P14902); assay: IDO enzyme inhibitory activity test; assay type: biochemical; settings: recombinant IDO, D-Trp substrate, reading at 321 nm for 40 min
T2 construct: made in house; host or cells: E. coli BL21 (pET28a-IDO plasmid)
Method: (1) Induced Expression and Purification Method of IDO Protein
Firstly, DO gene was amplified with PCR, and the amplified PCR product was recycled. Digestion (2 h under 37° C.), gel running and recycling were carried out on the pET28a plasmid (purchased from Shanghai Baomanbio Co., Ltd.) and IDO gel with two restriction enzymes (EcoR I and Xho I). T4 ligase was connected with the product overnight, added into DH5α competence, placed on the ice for 30 min and subjected to thermal shock at 42° C. for 90 s.
BL21 which contained pET28a-IDO plasmid was shaken vigorously at 37° C. till OD600 was 0.6-0.8, added into hemin (final concentration: 40 μM) and 0.5 mM IPTG (isopropyl-3-D-IPTG) and induced under 16° C. for 20 h; after induction, thallus were collected centrifugally at 4° C. and 6,000 rpm, washed with 50 mM PBS (pH 7.5) and collected again centrifugally.
The collected thallus were suspended again with buffer solution (50 mM PBS pH 7.5). An appropriate amount of 100×PMSF was added. The thallus were disrupted with cell disruption instrument (1,400 bar) at 4° C. for three times. The split bacteria were centrifuged at 18,000×g for 45 min. The sediment was removed but supernatant was retained and filtered with a 0.45 μm film at 4° C.; the nickel column was balanced with lysis buffer (50 mM PBS pH7.5) by 3 column volumes.
The supernatant was loaded on the nickel column and washed with wash solution (50 mM PBS pH7.5, 50 mM imidazole) by 4 column volume. Finally, protein was eluted with eluant (50 mM PBS pH7.5, 250 mM imidazole); dialyzed for 6 h with dialysis solution (50 mM PBS pH7.5), concentrated, sub-packaged, quickly frozen with liquid nitrogen and stored at −80° C. for backup.
(2) Test Method for IDO Enzyme Inhibitory Activity
Firstly, the compound was diluted by triple gradient. 1 μL of each concentration was added into a 96-well plate; 50 μL of IDO Enzyme solution PBS (pH 7.5; final concentration: 50 mM) was added: 25 μL of substrate 1 (methylene blue, final concentration: […]; catalase, final concentration: 0.2 μg/L; PBS (pH 7.5; final concentration: 50 mM) mixture and 25 μL of substrate 2 (D-Trp, final concentration: 1.5 mM; sodium ascorbate, final concentration: 20 mM; PBS (pH 7.5), final concentration 50 mM) mixture were added for starting the reaction. Finally, OOD321 nm reading was carried out for 40 min.

T1 sequence (P14902 whole entry): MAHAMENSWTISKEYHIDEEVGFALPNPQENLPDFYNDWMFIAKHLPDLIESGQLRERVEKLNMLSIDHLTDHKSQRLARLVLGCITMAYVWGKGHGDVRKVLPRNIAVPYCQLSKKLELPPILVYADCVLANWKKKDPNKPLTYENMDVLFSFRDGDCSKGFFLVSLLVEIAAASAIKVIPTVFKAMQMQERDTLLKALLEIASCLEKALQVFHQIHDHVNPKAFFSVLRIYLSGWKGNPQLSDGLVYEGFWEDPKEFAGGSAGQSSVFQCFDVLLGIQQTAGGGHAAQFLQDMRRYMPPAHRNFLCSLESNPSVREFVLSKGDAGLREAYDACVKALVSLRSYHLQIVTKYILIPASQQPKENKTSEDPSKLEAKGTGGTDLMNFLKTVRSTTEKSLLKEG
T2 sequence (P14902 whole entry): as above

SMILES	IC50 (IDO in Hela cells) [nM]	IC50 (IDO enzyme) [nM]
O=C(Nc1ccc(Cl)cc1)C1CC2(C1)CC(c1ccnc3ccccc13)C2 (racemic) [Example 1, (±)-N-(4-chlorophenyl)-6-(quinolin-4-yl)spiro[3.3]heptane-2-carboxamide]	> 50	1100
O=C(Nc1ccc(Cl)cc1)C1CC12CCC(c1ccnc3ccccc13)CC2 (racemic) [Example 2A, (±)-(cis/trans)-N-(4-chlorophenyl)-6-(quinolin-4-yl)spiro[2.5]octane-1-carboxamide]	> 50	1300
O=C(Nc1ccc(Cl)cc1)C1CC12CCC(c1ccnc3ccccc13)CC2 (racemic) [Example 2B, (±)-(cis/trans)-N-(4-chlorophenyl)-6-(quinolin-4-yl)spiro[2.5]octane-1-carboxamide]		500
O=C(Nc1ccc(Cl)cc1)C1CC2(C1)CC(c1ccnc3ccc(F)cc13)C2 (racemic) [Example 3, (±) N-(4-chlorophenyl)-6-(6-fluoroquinolin-4-yl)spiro[3.3]heptane-2-carboxamide]	> 3	630
O=C(Nc1ccc(Cl)cc1)C1CC12CCC(c1ccnc3ccc(F)cc13)CC2 (racemic) [Example 4, (±)-(cis/trans)-N-(4-chlorophenyl)-6-(6-fluoroquinolin-4-yl)spiro[2.5]octane-1-carboxamide]	22	160
O=C(Nc1ccc(F)cc1)C1CC12CCC(c1ccnc3ccc(F)cc13)CC2 (racemic) [Example 5, (±)-(cis/trans)-N-(4-fluorophenyl)-6-(6-fluoroquinolin-4-yl)spiro[2.5]octane-1-carboxamide]	> 3	330
O=C(Nc1ccc(C(F)(F)F)cc1)C1CC12CCC(c1ccnc3ccc(F)cc13)CC2 (racemic) [Example 6, (±)-(cis/trans)-6-(6-fluoroquinolin-4-yl)-N-(4-trifluoromethyl)phenyl)spiro[2.5]octane-1-carboxamide]	> 4	470
O=C(Nc1ccccc1)C1CC12CCC(c1ccnc3ccc(F)cc13)CC2 (racemic) [Example 7, (±)-(cis/trans)-6-(6-fluoroquinolin-4-yl)-N-phenylspiro[2.5]octane-1-carboxamide]		990
O=C(NC1CC12CCC(c1ccnc3ccc(F)cc13)CC2)c1ccc(Cl)cc1 (racemic) [Example 8, (±)-(cis/trans)-4-chloro-N-(6-(6-fluoroquinolin-4-yl)spiro[2.5]octan-1-yl)benzamide]	> 30	990
O=C(Nc1ccc(Cl)cc1)NC1CC12CCC(c1ccnc3ccc(F)cc13)CC2 (racemic) [Example 9, (±)-(cis/trans)-1-(4-chlorophenyl)-3-(6-(6-fluoroquinolin-4-yl)spiro[2.5]octan-1-yl)urea]		3000
O=C(Nc1ccc(Cl)cc1)NC1CCC12CCC(c1ccnc3ccc(F)cc13)CC2 (racemic) [Example 11A, (±) 1-(4-chlorophenyl)-3-(7-(6-fluoroquinolin-4-yl)spiro[3.5]nonan-1-yl)urea]		6900
O=C(Nc1ccc(Cl)cc1)NC1CCC12CCC(c1ccnc3ccc(F)cc13)CC2 (racemic) [Example 11B, (±) 1-(4-chlorophenyl)-3-(7-(6-fluoroquinolin-4-yl)spiro[3.5]nonan-1-yl)urea]		2700
O=C(NC1CCC12CCC(c1ccnc3ccc(F)cc13)CC2)c1ccc(Cl)cc1 (racemic) [Example 12A, (±) 4-chloro-N-(7-(6-fluoroquinolin-4-yl)spiro[35]nonan-1-yl)benzamide]		1200
O=C(NC1CCC12CCC(c1ccnc3ccc(F)cc13)CC2)c1ccc(Cl)cc1 (racemic) [Example 12B, (±) 4-chloro-N-(7-(6-fluoroquinolin-4-yl)spiro[3.5]nonan-1-yl)benzamide]	> 30	1180
O=C(Nc1cccc(Br)c1)C1CCC12CCC(c1ccnc3ccc(F)cc13)CC2 (racemic) [Example 14A, (±)-N-(3-bromophenyl)-7-(6-fluoroquinolin-4-yl)spiro[3.5]nonane-1-carboxamide]		7600
O=C(Nc1cccc(Br)c1)C1CCC12CCC(c1ccnc3ccc(F)cc13)CC2 (racemic) [Example 14B, (±)-N-(3-bromophenyl)-7-(6-fluoroquinolin-4-yl)spiro[3.5]nonane-1-carboxamide]		7000
O=C(Nc1ccc(Cl)cc1)NC1CC2(CCC(c3ccnc4ccc(F)cc34)CC2)C1 (racemic) [Example 16, (±) 1-(4-chlorophenyl)-3-(7-(6-fluoroquinolin-4-yl)spiro[3.5]nonan-2-yl)urea]		3200
O=C(NC1CC2(CCC(c3ccnc4ccc(F)cc34)CC2)C1)c1ccc(Cl)cc1 (racemic) [Example 17, (±) 4-chloro-N-(7-(6-fluoroquinolin-yl)spiro[3.5]nonan-2-yl)benzamide]		480
O=C(Nc1ccc(Br)cc1)C1CC2(CCC(c3ccnc4ccc(F)cc34)CC2)C1 (racemic) [Example 18, (±) N-(4-bromophenyl)-7-(6-fluoroquinoline-4-yl)spiro[3.5]nonane-2-carboxamide]	2.52	200
O=C(Nc1ccc(F)cc1)C1CC2(CCC(c3ccnc4ccc(F)cc34)CC2)C1 (racemic) [Example 19, (±) N-(4-fluorophenyl)-7-(6-fluoroquinolin-4-yl)spiro[3.5]nonane-2-carboxamide]	3.36	400
O=C(NC1CC2(CCC(c3ccnc4ccc(F)cc34)CC2)C1)c1ccc(Br)cc1 (racemic) [Example 20, (±) 4-bromo-N-(7-(6-fluoroquinolin-4-yl)spiro[3.5]nonan-2-yl)benzamide]	> 10	2420
O=C(NC1CC2(CCC(c3ccnc4ccc(F)cc34)CC2)C1)c1ccc(F)cc1 (racemic) [Example 21, (±) 4-fluoro-N-(7-(6-fluoroquinolin-4-yl)spiro[3.5]nonan-2-yl)benzamide]	> 10	480
O=C(Nc1ccc(Cl)cc1)C1CCC12CCC(c1ccnc3ccc(F)cc13)CC2 (single isomer, unassigned) [Example 10A, (±) N-(4-chlorophenyl)-7-(6-fluoroquinolin-4-yl)spiro[3.5]nonane-1-carboxamide]	> 3	520
O=C(Nc1ccc(Cl)cc1)C1CCC12CCC(c1ccnc3ccc(F)cc13)CC2 (single isomer, unassigned) [Example 10B, (±) N-(4-chlorophenyl)-7-(6-fluoroquinolin-4-yl)spiro[3.5]nonane-1-carboxamide]		2100
O=S(=O)(NC1CCC12CCC(c1ccnc3ccc(F)cc13)CC2)c1ccc(Cl)cc1 (single isomer, unassigned) [Example 13A, (±) 4-chloro-N-(7-(6-fluoroquinolin-4-yl)spiro[3.5]nonan-1-yl)benzenesulfonamide]		20000
O=S(=O)(NC1CCC12CCC(c1ccnc3ccc(F)cc13)CC2)c1ccc(Cl)cc1 (single isomer, unassigned) [Example 13B, (±) 4-chloro-N-(7-(6-fluoroquinolin-4-ylspiro[3.5]nonan-1-yl)benzenesulfonamide]		157000
O=C(Nc1ccc(Cl)cc1)C1CCC2(CC1)CC(c1ccnc3ccc(F)cc13)C2 (single isomer, unassigned) [Example 22A, N-(4-chlorophenyl)-2-(6-fluoroquinoline-4-yl)spiro[3.5]nonane-7-carboxamide]		4160
O=C(Nc1ccc(Cl)cc1)C1CCC2(CC1)CC(c1ccnc3ccc(F)cc13)C2 (single isomer, unassigned) [Example 22B, N-(4-chlorophenyl)-2-(6-fluoroquinoline-4-yl)spiro[3.5]nonane-7-carboxamide]		3440
